Experimental data published in patent publication US10023570B2 (Array BioPharma, Inc., priority 2015, dated 2018).
Counter-ions that a name gives are not always drawn. Like-named read-outs stand apart in the source and are kept apart here.

Legend:
[1] = target: Kif5b-RET fusion protein in HEK-293 cells (Homo sapiens, UniProt P07949); assay: cell-based; details: read-out: KIF5B-RET pTYR1062 Cell IC50
[2] = target: N-terminal GST tagged recombinant human RET cytoplasmic domain (aa 658-end), wild type RET kinase (Homo sapiens (Human), UniProt P07949); assay: RET Enzyme Assay (HTRF KinEASE-TK), wild type RET; assay type: biochemical; details: wild type RET, 1 mM ATP
Chain of N-terminal GST tagged recombinant human RET cytoplasmic domain (aa 658-end), wild type RET kinase (P07949 658-1114): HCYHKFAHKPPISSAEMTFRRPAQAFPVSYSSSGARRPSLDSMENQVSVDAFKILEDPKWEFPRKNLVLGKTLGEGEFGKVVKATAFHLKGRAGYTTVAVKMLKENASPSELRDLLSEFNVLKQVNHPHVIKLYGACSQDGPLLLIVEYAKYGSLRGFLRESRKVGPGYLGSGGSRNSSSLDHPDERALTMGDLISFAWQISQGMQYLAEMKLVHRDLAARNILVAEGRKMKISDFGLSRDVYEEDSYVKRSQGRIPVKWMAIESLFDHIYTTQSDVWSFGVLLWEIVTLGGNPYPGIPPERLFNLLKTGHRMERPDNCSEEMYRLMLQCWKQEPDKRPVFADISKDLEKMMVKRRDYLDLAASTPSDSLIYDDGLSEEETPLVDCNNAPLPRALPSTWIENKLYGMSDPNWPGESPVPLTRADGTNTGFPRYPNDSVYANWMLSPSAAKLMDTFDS

[3] = target: human KDR protein in HEK-293 cells (Homo sapiens (Human), UniProt P35968); assay: KDR Cell Assay (phospho-KDR in HEK-293 cells expressing inducible KDR); assay type: cell-based; details: pKDR Cell HEK 10% FBS IC50, HEK-293 cells expressing inducible KDR, VEGF stimulated, 10% FBS
Chain of human KDR protein in HEK-293 cells (P35968 20-1356): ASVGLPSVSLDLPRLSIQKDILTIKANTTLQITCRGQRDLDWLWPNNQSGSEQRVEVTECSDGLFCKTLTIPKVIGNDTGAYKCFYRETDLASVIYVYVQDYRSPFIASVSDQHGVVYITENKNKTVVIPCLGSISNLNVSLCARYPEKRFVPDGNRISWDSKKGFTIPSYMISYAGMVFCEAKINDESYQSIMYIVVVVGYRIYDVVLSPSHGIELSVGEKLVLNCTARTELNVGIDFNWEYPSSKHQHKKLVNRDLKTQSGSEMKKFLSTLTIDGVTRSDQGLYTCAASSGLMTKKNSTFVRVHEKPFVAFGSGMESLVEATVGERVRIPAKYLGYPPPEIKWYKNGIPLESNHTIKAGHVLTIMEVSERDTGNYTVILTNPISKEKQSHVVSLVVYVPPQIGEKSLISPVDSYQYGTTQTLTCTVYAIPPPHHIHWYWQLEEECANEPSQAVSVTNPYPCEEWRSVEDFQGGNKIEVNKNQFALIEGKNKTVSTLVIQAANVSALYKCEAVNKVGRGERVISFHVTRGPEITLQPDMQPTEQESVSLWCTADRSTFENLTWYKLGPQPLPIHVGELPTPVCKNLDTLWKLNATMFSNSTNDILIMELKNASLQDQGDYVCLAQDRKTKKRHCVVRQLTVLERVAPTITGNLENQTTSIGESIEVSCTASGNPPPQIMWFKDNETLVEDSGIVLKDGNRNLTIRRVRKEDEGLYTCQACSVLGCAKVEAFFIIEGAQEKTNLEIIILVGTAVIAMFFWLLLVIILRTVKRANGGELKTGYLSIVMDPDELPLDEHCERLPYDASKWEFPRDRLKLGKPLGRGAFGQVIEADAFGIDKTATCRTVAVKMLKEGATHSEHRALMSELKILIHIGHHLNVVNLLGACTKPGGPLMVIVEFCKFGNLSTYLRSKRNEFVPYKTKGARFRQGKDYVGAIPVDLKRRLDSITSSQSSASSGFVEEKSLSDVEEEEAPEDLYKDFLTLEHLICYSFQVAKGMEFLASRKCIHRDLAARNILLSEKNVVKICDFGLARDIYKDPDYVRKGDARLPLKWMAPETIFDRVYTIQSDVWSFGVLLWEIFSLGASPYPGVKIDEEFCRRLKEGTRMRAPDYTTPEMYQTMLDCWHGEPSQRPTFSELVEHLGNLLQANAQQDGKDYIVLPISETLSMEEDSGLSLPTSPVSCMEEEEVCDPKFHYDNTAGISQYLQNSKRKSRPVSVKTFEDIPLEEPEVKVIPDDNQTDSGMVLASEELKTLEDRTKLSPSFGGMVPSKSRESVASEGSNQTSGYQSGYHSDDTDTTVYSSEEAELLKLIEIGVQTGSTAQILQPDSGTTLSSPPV
How it was run: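 HEK-293 cells with inducible human KDR were treated with compound for 1 h in DMEM (0.25% DMSO final), then lysed. Phospho-KDR was quantified by Meso Scale immunoassay, expressed as percent of control, and IC50 taken where a 4-parameter logistic fit crossed 50 POC.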

[4] = HEK-293 cells expressing Kif5b-RET, phospho-RET(Tyr1062)

Chain of Kif5b-RET fusion protein in HEK-293 cells (P07949 29-1114 limits assumed): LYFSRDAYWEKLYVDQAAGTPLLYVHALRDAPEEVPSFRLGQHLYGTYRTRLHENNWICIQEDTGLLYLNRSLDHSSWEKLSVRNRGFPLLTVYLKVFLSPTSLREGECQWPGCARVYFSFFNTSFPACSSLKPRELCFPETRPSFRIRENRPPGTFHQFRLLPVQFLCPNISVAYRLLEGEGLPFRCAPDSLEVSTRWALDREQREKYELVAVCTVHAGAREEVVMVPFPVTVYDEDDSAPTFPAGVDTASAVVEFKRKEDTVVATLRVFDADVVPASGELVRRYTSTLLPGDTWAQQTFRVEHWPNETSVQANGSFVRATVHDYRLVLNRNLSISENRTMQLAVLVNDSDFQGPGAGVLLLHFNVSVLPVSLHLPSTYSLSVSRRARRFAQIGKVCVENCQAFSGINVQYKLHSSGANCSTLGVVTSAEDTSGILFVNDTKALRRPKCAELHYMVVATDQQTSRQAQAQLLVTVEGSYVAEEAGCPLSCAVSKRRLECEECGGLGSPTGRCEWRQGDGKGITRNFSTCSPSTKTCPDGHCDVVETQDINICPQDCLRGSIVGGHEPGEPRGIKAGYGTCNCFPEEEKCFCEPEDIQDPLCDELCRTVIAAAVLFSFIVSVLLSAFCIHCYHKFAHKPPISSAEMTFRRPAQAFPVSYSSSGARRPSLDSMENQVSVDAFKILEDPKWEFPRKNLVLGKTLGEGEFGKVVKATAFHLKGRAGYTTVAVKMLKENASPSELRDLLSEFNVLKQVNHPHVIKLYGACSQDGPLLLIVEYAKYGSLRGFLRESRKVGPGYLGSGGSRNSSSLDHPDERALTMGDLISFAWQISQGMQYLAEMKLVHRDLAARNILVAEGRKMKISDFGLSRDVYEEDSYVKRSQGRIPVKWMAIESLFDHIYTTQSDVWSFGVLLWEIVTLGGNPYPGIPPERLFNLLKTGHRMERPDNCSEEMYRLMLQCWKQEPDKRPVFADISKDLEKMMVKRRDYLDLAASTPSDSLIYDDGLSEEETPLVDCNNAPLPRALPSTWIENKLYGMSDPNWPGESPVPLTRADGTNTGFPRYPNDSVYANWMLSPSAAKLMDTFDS

Row | IC50 [1, 4] [nM] | IC50 [2] [nM] | IC50 [3] [nM] | Structure (SMILES) | IC50 [1] [nM]
1 | 3.2 | 4 | 477 | COC(CNC(=O)C1CCN(c2ccc(-c3cc(-c4cnn(C)c4)cn4ncc(C#N)c34)cn2)CC1)C(C)C (stereo not drawn) [Example 236, 1-(5-(3-cyano-6-(1-methyl-1H-pyrazol-4-yl)pyrazolo[1,5-a]pyridin-4-yl)pyridin-2-yl)-N-(2-methoxy-3-methylbutyl)piperidine-4-carboxamide] | –
2 | 15.8 | 6.1 | 840 | CCONC(=O)C1CCN(c2ccc(-c3cc(-c4cnn(C)c4)cn4ncc(C#N)c34)cn2)CC1 [Example 237, 1-(5-(3-cyano-6-(1-methyl-1H-pyrazol-4-yl)pyrazolo[1,5-a]pyridin-4-yl)pyridin-2-yl)-N-ethoxypiperidine-4-carboxamide] | –
3 | 5.8 | 8.7 | 916 | COC(C)CNC(=O)C1CCN(c2ccc(-c3cc(-c4cnn(C)c4)cn4ncc(C#N)c34)cn2)CC1 (stereo not drawn) [Example 239, 1-(5-(3-cyano-6-(1-methyl-1H-pyrazol-4-yl)pyrazolo[1,5-a]pyridin-4-yl)pyridin-2-yl)-N-(2-methoxypropyl) piperidine-4-carboxamide] | –
4 | 6.3 | 4.5 | 223 | Cn1cc(-c2cc(-c3ccc(N4CCC(C(=O)NCCC(F)(F)F)CC4)nc3)c3c(C#N)cnn3c2)cn1 [Example 242, 1-(5-(3-cyano-6-(1-methyl-1H-pyrazol-4-yl)pyrazolo[1,5-a]pyridin-4-yl)pyridin-2-yl)-N-(3,3,3-trifluoropropyl)piperidine-4-carboxamide] | –
5 | 5.4 | 5.6 | 103 | Cn1cc(-c2cc(-c3ccc(N4CCC(C(=O)NCC(F)(F)F)CC4)nc3)c3c(C#N)cnn3c2)cn1 [Example 243, 1-(5-(3-cyano-6-(1-methyl-1H-pyrazol-4-yl)pyrazolo[1,5-a]pyridin-4-yl)pyridin-2-yl)-N-(2,2,2-trifluoroethyl)piperidine-4-carboxamide] | –
6 | 69.2 | 20.9 | 660 | CC(C)CN(C)C(=O)C1CCN(c2ccc(-c3cc(-c4cnn(C)c4)cn4ncc(C#N)c34)cn2)CC1 [Example 244, 1-(5-(3-cyano-6-(1-methyl-1H-pyrazol-4-yl)pyrazolo[1,5-a]pyridin-4-yl)pyridin-2-yl)-N-isobutyl-N-methylpiperidine-4-carboxamide] | –
7 | 13.6 | 12 | 949 | CC(C)NC(=O)C1CCN(c2ccc(-c3cc(-c4cnn(C)c4)cn4ncc(C#N)c34)cn2)CC1 [Example 246, 1-(5-(3-cyano-6-(1-methyl-1H-pyrazol-4-yl)pyrazolo[1,5-a]pyridin-4-yl)pyridin-2-yl)-N-isopropylpiperidine-4-carboxamide] | –
8 | 33.5 | 26.6 | 998 | CC(C)NC(=O)CC1CCN(c2ccc(-c3cc(-c4cnn(C)c4)cn4ncc(C#N)c34)cn2)CC1 [Example 249, 2-(1-(5-(3-cyano-6-(1-methyl-1H-pyrazol-4-yl)pyrazolo[1,5-a]pyridin-4-yl)pyridin-2-yl)piperidin-4-yl)-N-isopropylacetamide] | –
9 | 6.1 | 7 | 468 | Cn1cc(-c2cc(-c3ccc(N4CCC(C)(C(=O)NCCC(F)(F)F)CC4)nc3)c3c(C#N)cnn3c2)cn1 [Example 250, 1-(5-(3-cyano-6-(1-methyl-1H-pyrazol-4-yl)pyrazolo[1,5-a]pyridin-4-yl)pyridin-2-yl)-4-methyl-N-(3,3,3-trifluoropropyl)piperidine-4-carboxamide] | –
10 | 5.6 | 7.8 | 495 | CC(C)NC(=O)C1(C)CCN(c2ccc(-c3cc(-c4cnn(C)c4)cn4ncc(C#N)c34)cn2)CC1 [Example 251, 1-(5-(3-cyano-6-(1-methyl-1H-pyrazol-4-yl)pyrazolo[1,5-a]pyridin-4-yl)pyridin-2-yl)-N-isopropyl-4-methylpiperidine-4-carboxamide] | –
11 | 4.8 | 11.6 | 656 | COCC(C)NC(=O)C1(C)CCN(c2ccc(-c3cc(-c4cnn(C)c4)cn4ncc(C#N)c34)cn2)CC1 (stereo not drawn) [Example 252, 1-(5-(3-cyano-6-(1-methyl-1H-pyrazol-4-yl)pyrazolo[1,5-a]pyridin-4-yl)pyridin-2-yl)-N-(1-methoxypropan-2-yl)-4-methylpiperidine-4-carboxamide] | –
12 | 8.4 | 16.1 | 596 | C[C@@H](NC(=O)C1(C)CCN(c2ccc(-c3cc(-c4cnn(C)c4)cn4ncc(C#N)c34)cn2)CC1)C(F)(F)F [Example 253, (R)-1-(5-(3-cyano-6-(1-methyl-1H-pyrazol-4-yl)pyrazolo[1,5-a]pyridin-4-yl)pyridin-2-yl)-4-methyl-N-(1,1,1-trifluoropropan-2-yl)piperidine-4-carboxamide] | –
13 | 12.3 | 9.2 | 446 | COC(=O)C1(C)CCN(c2ccc(-c3cc(-c4cnn(C)c4)cn4ncc(C#N)c34)cn2)CC1 [Example 254, Methyl 1-(5-(3-cyano-6-(1-methyl-1H-pyrazol-4-yl)pyrazolo[1,5-a]pyridin-4-yl)pyridin-2-yl)-4-methylpiperidine-4-carboxylate] | –
14 | 7.3 | 9.1 | 1090 | CCC1(C(=O)NCCC(F)(F)F)CCN(c2ccc(-c3cc(-c4cnn(C)c4)cn4ncc(C#N)c34)cn2)CC1 [Example 255, 1-(5-(3-cyano-6-(1-methyl-1H-pyrazol-4-yl)pyrazolo[1,5-a]pyridin-4-yl)pyridin-2-yl)-4-ethyl-N-(3,3,3-trifluoropropyl)piperidine-4-carboxamide] | –
15 | 4.5 | 12.9 | 735 | CCC1(C(=O)NC(C)C)CCN(c2ccc(-c3cc(-c4cnn(C)c4)cn4ncc(C#N)c34)cn2)CC1 [Example 256, 1-(5-(3-cyano-6-(1-methyl-1H-pyrazol-4-yl)pyrazolo[1,5-a]pyridin-4-yl)pyridin-2-yl)-4-ethyl-N-isopropylpiperidine-4-carboxamide] | –
16 | 9.3 | 14.9 | 1350 | CCC1(C(=O)N[C@H](C)C(F)(F)F)CCN(c2ccc(-c3cc(-c4cnn(C)c4)cn4ncc(C#N)c34)cn2)CC1 [Example 257, (R)-1-(5-(3-cyano-6-(1-methyl-1H-pyrazol-4-yl)pyrazolo[1,5-a]pyridin-4-yl)pyridin-2-yl)-4-ethyl-N-(1,1,1-trifluoropropan-2-yl)piperidine-4-carboxamide] | –
17 | 10 | 12.5 | 505 | CCC1(C(=O)NCC(C)(C)O)CCN(c2ccc(-c3cc(-c4cnn(C)c4)cn4ncc(C#N)c34)cn2)CC1 [Example 258, 1-(5-(3-cyano-6-(1-methyl-1H-pyrazol-4-yl)pyrazolo[1,5-a]pyridin-4-yl)pyridin-2-yl)-4-ethyl-N-(2-hydroxy-2-methylpropyl) piperidine-4-carboxamide] | –
18 | 13.6 | 11 | 2760 | CC(C)CC(=O)N1CCN(c2ccc(-c3cc(-c4cnn(C(F)F)c4)cn4ncc(C#N)c34)cn2)CC1 [Example 267, 6-(1-(difluoromethyl)-1H-pyrazol-4-yl)-4-(6-(4-(3-methylbutanoyl)piperazin-1-yl)pyridin-3-yl)pyrazolo[1,5-a]pyridine-3-carbonitrile] | –
19 | 60.4 | 62.1 | 1370 | CN(C)CC(=O)N1CCN(c2ccc(-c3cc(-c4cnn(C)c4)cn4ncc(Cl)c34)cn2)CC1 [Example 328, 1-(4-(5-(3-chloro-6-(1-methyl-1H-pyrazol-4-yl)pyrazolo[1,5-a]pyridin-4-yl)pyridin-2-yl)piperazin-1-yl)-2-(dimethylamino)ethanone] | –
20 | 45.6 | 23.2 | 381 | COCC(=O)N1CCN(c2ccc(-c3cc(-c4cnn(C)c4)cn4ncc(Cl)c34)cn2)CC1 [Example 329, 1-(4-(5-(3-chloro-6-(1-methyl-1H-pyrazol-4-yl)pyrazolo[1,5-a]pyridin-4-yl)pyridin-2-yl)piperazin-1-yl)-2-methoxyethanone] | –
21 | 84 | 38.3 | 566 | CC(=O)N1CCN(c2ccc(-c3cc(-c4cnn(C)c4)cn4ncc(Cl)c34)cn2)CC1 [Example 330, 1-(4-(5-(3-chloro-6-(1-methyl-1H-pyrazol-4-yl)pyrazolo[1,5-a]pyridin-4-yl)pyridin-2-yl)piperazin-1-yl)ethanone] | –
22 | 148 | 31.1 | 2350 | Cn1cc(-c2cc(-c3ccc(N4CCN(C(=O)CC(C)(C)C)CC4)nc3)c3c(Cl)cnn3c2)cn1 [Example 331, 1-(4-(5-(3-chloro-6-(1-methyl-1H-pyrazol-4-yl)pyrazolo[1,5-a]pyridin-4-yl)pyridin-2-yl)piperazin-1-yl)-3,3-dimethylbutan-1-one] | –
23 | 47 | 16.2 | 207 | Cn1cc(-c2cc(-c3ccc(N4CCN(S(C)(=O)=O)CC4)nc3)c3c(Cl)cnn3c2)cn1 [Example 332, 3-chloro-6-(1-methyl-1H-pyrazol-4-yl)-4-(6-(4-(methylsulfonyl)piperazin-1-yl)pyridin-3-yl)pyrazolo[1,5-a]pyridine] | –

Row | Structure (SMILES) | IC50 [1, 4] [nM] | IC50 [2] [nM] | IC50 [3] [nM] | IC50 [1] [nM]
24 | Cn1cc(-c2cc(-c3ccc(N4CCNCC4)nc3)c3c(Cl)cnn3c2)cn1 [Example 326, 3-chloro-6-(1-methyl-1H-pyrazol-4-yl)-4-(6-(piperazin-1-yl)pyridine-3-yl)pyrazolo[1,5-a]pyridine dihydrochloride] | – | 75 | 579 | 70.4
